These results are taken from patent publication US11274092B2, “Potassium channel inhibitors” (ACESION PHARMA ApS, priority 2016, dated 2022).

Molecules are shown by their SMILES.

The target in this assay is T1, human SK3 channel (hKCa2.3) (Homo sapiens, UniProt Q9UGI6).
T1 construct: expressed in transfected cells
The assay is described as follows: Automated whole cell patch-clamp (QPatch 16 HT), inhibition of SK3 current. Type of assay: cell-based. To be noted: HEK-293 cells stably expressing hKCa2.3; symmetrical K+ solutions, free calcium 400 nM; effects normalized to N-methyl bicuculline. The gist of the method: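 HEK-293 cells stably expressing hKCa2.3, automated whole-cell patch clamp in symmetrical K+ (400 nM free intracellular Ca2+, pH 7.2; external pH 7.4). Held at 0 mV, ramps −80 to +80 mV (200 ms) every 5 s; increasing compound concentrations, currents run-down corrected and normalized to 100 μM N-methyl bicuculline; IC50 reported.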
In general terms: In patch-clamp work, channel activity is measured electrically.
As to `O=C(CC(Nc1nc2ccccc2[nH]1)c1cccc(C(F)(F)F)c1)NCc1ccon1` (centres unmarked) [Example 71, 3-[(1H-1,3-benzodiazol-2-yl)amino]-N-(1,2-oxazol-3-ylmethyl)-3-[3-(trifluoromethyl)phenyl]propanamide], the IC50 (usually the concentration needed to halve the response being measured) was under 10 µM.
On to `O=C(CC(Nc1nc2ccccc2[nH]1)c1cccc(C(F)(F)F)c1)NCc1nc2ccccc2o1` (centres unmarked) [Example 72, 3-[(1H-1,3-benzodiazol-2-yl)amino]-N-(1,3-benzoxazol-2-ylmethyl)-3-[3-(trifluoromethyl)phenyl]propanamide], for which the IC50 is under 10 µM.
The figure for `COCC(C)NC(=O)CC(Nc1nc2ccccc2[nH]1)c1cccc(C(F)(F)F)c1` (centres unmarked) [Example 73, 3-[(1H-1,3-benzodiazol-2-yl)amino]-N-(1-methoxypropan-2-yl)-3-[3-(trifluoromethyl)phenyl]propanamide] is under 10 µM; for `Cc1noc(C)c1CCNC(=O)CC(Nc1nc2ccccc2[nH]1)c1cccc(C(F)(F)F)c1` (centres unmarked) [Example 74, 3-[(1H-1,3-benzodiazol-2-yl)amino]-N-[2-(dimethyl-1,2-oxazol-4-yl)ethyl]-3-[3-(trifluoromethyl)phenyl]propanamide] it is under 10 µM.
Then `O=C(CC(Nc1nc2ccccc2[nH]1)c1cccc(C(F)(F)F)c1)NCc1nccs1` (centres unmarked) [Example 75, 3-[(1H-1,3-benzodiazol-2-yl)amino]-N-(1,3-thiazol-2-ylmethyl)-3-[3-(trifluoromethyl)phenyl]propanamide], with under 10 µM; and `Cc1cccc(C(C)NC(=O)CC(Nc2nc3ccccc3[nH]2)c2cccc(C(F)(F)F)c2)n1` (centres unmarked) [Example 76, 3-[(1H-1,3-benzodiazol-2-yl)amino]-N-[1-(6-methylpyridin-2-yl)ethyl]-3-[3-(trifluoromethyl)phenyl]propanamide], with under 10 µM; and `Cc1ncc(CNC(=O)CC(Nc2nc3ccccc3[nH]2)c2cccc(C(F)(F)F)c2)s1` (centres unmarked) [Example 77, 3-[(1H-1,3-benzodiazol-2-yl)amino]-N-[(2-methyl-1,3-thiazol-5-yl)methyl]-3-[3-(trifluoromethyl)phenyl]propanamide], with under 10 µM.
With `O=C(CC(Nc1nc2ccccc2[nH]1)c1cccc(C(F)(F)F)c1)NCc1cncnc1` (centres unmarked) [Example 78, 3-[(1H-1,3-benzodiazol-2-yl)amino]-N-(pyrimidin-5-ylmethyl)-3-[3-(trifluoromethyl)phenyl]propanamide], the IC50 was under 10 µM.
In the case of `Cc1cc(CNC(=O)CC(Nc2nc3ccccc3[nH]2)c2cccc(C(F)(F)F)c2)ccn1` (centres unmarked) [Example 79, 3-[(1H-1,3-benzodiazol-2-yl)amino]-N-[(2-methylpyridin-4-yl)methyl]-3-[3-(trifluoromethyl)phenyl]propanamide], the half-maximal inhibitory concentration (IC50) is under 10 µM.
Then `COCCNC(=O)CC(Nc1nc2ccccc2[nH]1)c1cc(C)c(F)c(C)c1` (centres unmarked) [Example 80, 3-[(1H-1,3-benzodiazol-2-yl)amino]-3-(4-fluoro-3,5-dimethylphenyl)-N-(2-methoxyethyl)propanamide], with under 10 µM; and `O=C(CC(Nc1nc2ccccc2[nH]1)c1cccc(SC(F)(F)F)c1)NCCOC(F)(F)F` (centres unmarked) [Example 81, 3-[(1H-1,3-benzodiazol-2-yl)amino]-N-[2-(trifluoromethoxy)ethyl]-3-{3-[(trifluoromethyl)sulfanyl]phenyl}propanamide], with under 10 µM.
Then `COCCNC(=O)CC(Nc1nc2ccccc2[nH]1)c1cccc(SC(F)(F)F)c1` (centres unmarked) [Example 82, 3-[(1H-1,3-benzodiazol-2-yl)amino]-N-(2-methoxyethyl)-3-{3-[(trifluoromethyl)sulfanyl]phenyl}propanamide], with under 10 µM.
Then `O=C(CC(Nc1nc2ccccc2[nH]1)c1cccc(OC(F)(F)F)c1)NCCOC(F)(F)F` (centres unmarked) [Example 83, 3-[(1H-1,3-benzodiazol-2-yl)amino]-N-[2-(trifluoromethoxy)ethyl]-3-[3-(trifluoromethoxy)phenyl]propanamide], with under 10 µM; and `COCCNC(=O)CC(Nc1nc2ccccc2[nH]1)c1cccc(OC(F)(F)F)c1` (centres unmarked) [Example 84, 3-[(1H-1,3-benzodiazol-2-yl)amino]-N-(2-methoxyethyl)-3-[3-(trifluoromethoxy)phenyl]propanamide], with under 10 µM.
As for `N#CCNC(=O)CC(Nc1nc2ccccc2[nH]1)c1cccc(OC(F)(F)F)c1` (centres unmarked) [Example 85, 3-[(1H-1,3-benzodiazol-2-yl)amino]-N-(cyanomethyl)-3-[3-(trifluoromethoxy)phenyl]propanamide], the IC50 was under 10 µM.
The figure for `Cc1cc(C(CC(=O)NCC#N)Nc2nc3ccccc3[nH]2)cc(C)c1F` (centres unmarked) [Example 86, 3-[(1H-1,3-benzodiazol-2-yl)amino]-N-(cyanomethyl)-3-(4-fluoro-3,5-dimethylphenyl)propanamide] is under 10 µM; for `COCCNC(=O)CC(Nc1nc2ccccc2[nH]1)c1cccc(SC2CCC2)c1` (centres unmarked) [Example 87, 3-[(1H-1,3-benzodiazol-2-yl)amino]-3-[3-(cyclobutylsulfanyl)phenyl]-N-(2-methoxyethyl)propanamide] it is under 10 µM; for `O=C(CC(Nc1nc2ccccc2[nH]1)c1cccc(OC(F)(F)F)c1)NCc1ccon1` (centres unmarked) [Example 88, 3-[(1H-1,3-benzodiazol-2-yl)amino]-N-(1,2-oxazol-3-ylmethyl)-3-[3-(trifluoromethoxy)phenyl]propanamide] it is under 10 µM.
Then `O=C(CC(Nc1nc2ccccc2[nH]1)c1cccc(SC(F)(F)F)c1)NCc1nc2ccccc2o1` (centres unmarked) [Example 89, 3-[(1H-1,3-benzodiazol-2-yl)amino]-N-(1,3-benzoxazol-2-ylmethyl)-3-{3-[(trifluoromethyl)sulfanyl]phenyl}propanamide], with under 10 µM; and `O=C(CC(Nc1nc2ccccc2[nH]1)c1cccc(OC(F)(F)F)c1)NCc1nc2ccccc2o1` (centres unmarked) [Example 90, 3-[(1H-1,3-benzodiazol-2-yl)amino]-N-(1,3-benzoxazol-2-ylmethyl)-3-[3-(trifluoromethoxy)phenyl]propanamide], with under 10 µM; and `COCCNC(=O)CC(C)(Nc1nc2cc(F)ccc2[nH]1)c1cccc(C(F)(F)F)c1` (centres unmarked) [Example 91, 3-[(5-fluoro-1H-1,3-benzodiazol-2-yl)amino]-N-(2-methoxyethyl)-3-[3-(trifluoromethyl)phenyl]butanamide], with under 10 µM.
In the case of `COCCNC(=O)CC(Nc1nc2ccccc2[nH]1)c1cccc(SC)c1` (centres unmarked) [Example 92, 3-[(1H-1,3-benzodiazol-2-yl)amino]-N-(2-methoxyethyl)-3-[3-(methylsulfanyl)phenyl]propanamide], the IC50 was under 10 µM.
Then `COCCNC(=O)CC(Nc1nc2c(OC)cccc2[nH]1)c1cccc(C(F)(F)F)c1` (centres unmarked) [Example 93, 3-[(4-methoxy-1H-1,3-benzodiazol-2-yl)amino]-N-(2-methoxyethyl)-3-[3-(trifluoromethyl)phenyl]propanamide], with under 10 µM.
The figure for `O=C(CC(Nc1nc2c(CO)cccc2[nH]1)c1cccc(C(F)(F)F)c1)NCCOC(F)(F)F` (centres unmarked) [Example 94, 3-{[4-(hydroxymethyl)-1H-1,3-benzodiazol-2-yl]amino}-N-[2-(trifluoromethoxy)ethyl]-3-[3-(trifluoromethyl)phenyl]propanamide] is under 10 µM.
Then `COCCNC(=O)CC(Nc1nc2cc(F)c(F)cc2[nH]1)c1cccc(C(F)(F)F)c1` (centres unmarked) [Example 95, 3-[(5,6-difluoro-1H-1,3-benzodiazol-2-yl)amino]-N-(2-methoxyethyl)-3-[3-(trifluoromethyl)phenyl]propanamide], with 10 to 100 µM; and `COCCNC(=O)CC(Nc1nc2c(C)c(F)ccc2[nH]1)c1cccc(C(F)(F)F)c1` (centres unmarked) [Example 96, 3-[(5-fluoro-4-methyl-1H-1,3-benzodiazol-2-yl)amino]-N-(2-methoxyethyl)-3-[3-(trifluoromethyl)phenyl]propanamide], with 10 to 100 µM.
